Source: patent US20050106168A1, “Methods and compositions for treating nephrotic syndrome” (priority 2003, published 2005)

What was measured:
[1] = tested on: Wistar rats showing proteinuria; experiment: Effect of treatment on proteinuria (urinary protein by sulfosalicylic acid turbidimetry) in BSA-injected rats; format: in vivo, rat; details: BSA 350 mg/kg i.v., intragastric twice daily, yeast compositions 1.0 ml/100 g, pednisone 0.25 mg/100 g
Experimental: (§1) The activated yeast compositions used in the following examples were prepared as described above, using Saccharomyces cerevisiae Hansen AS2.502, cultured in the presence of an alternating electric field having the electric field frequency and field strength exemplified in the parentheses following the recommended ranges listed in Section IV, supra. Control (i.e., untreated) yeast compositions were those prepared in the same manner as described in Section VI, supra, except that the yeast cells were cultured in the absence of EMFs. Unless otherwise specified, all compositions of interest were administered to the animals by intragastric feeding.
To test the ability of the activated yeast compositions to reduce the level of urinary protein, sixty healthy Wistar rats with average weight of about 200-220 g (4-7 months old, half of them male and the other half female) were chosen and males and females were kept in separate cages. […] Urine samples were collected from the fine cancellated base of metabolic cages, and the amount of protein in the samples was determined by […]. […]
The amount of urinary protein was determined by sulfosalicylic acid turbidimetry. The volume of each urine sample was first measured (ml). […] Ten minutes later, the absorption of the sample test tube was measured at 620 nm against the control tube. […]

[2] = tested on: Wistar rats showing proteinuria; experiment: Effect of treatment on serum protein (biuret method) in BSA-injected rats; format: in vivo, rat; details: Wistar rats prepared as in Example 1; intragastric twice daily for six weeks; yeast compositions 1.0 ml/100 g, pednisone 0.2 mg/100 g
Experimental: as §1, with “feeding. […]” for “feeding.”
Subsequently, a composition of interest was administered twice daily to each of the four groups of rats for six weeks. […] The amount of protein in the supernatant (serum protein) was determined.
To determine the amount of serum protein, 50 μl of the supernatant and standard serum protein were added into two separate tubes. […] The mixtures were placed in water bath at 37° C. for 10 minutes and measured for absorption at 546 nm. The concentration of serum protein was calculated according to the following formula: [Serum Protein]=[absorption for the testing sample/absorption for the standard]×[standard serum protein](g/dl).

C[C@]12C=CC(=O)C=C1CC[C@@H]1[C@@H]2C(=O)C[C@@]2(C)[C@H]1CC[C@]2(O)C(=O)CO [Pednisone, pednisone (metacortandiacin)]
Urinary Protein (mg in 100 ml urine sample) in a 24-hour Period, 8-Week Treatment ([1]; last day of eighth week): 4.22 ± 1.34 mg in 100 ml urine sample
Urinary Protein (mg in 100 ml urine sample) in a 24-hour Period, 4-Week Treatment ([1]; last day of fourth week): 4.57 ± 1.42 mg in 100 ml urine sample
Serum Protein [2]: 6.41 ± 3.32 g/dL
